{
  "source": "paper doi:10.1101/2020.08.04.236984v1",
  "about": "(bioRxiv, 2020)",
  "key": {"SKBR-3 cells [1]": {"test_system": "SKBR-3 cells", "experiment": "Flow cytometric measurement of penetratin uptake and endo-lysosomal release", "assay_type": "cell-based", "details": "atorvastatin 100 nM and 10 μM, 72 h pre-treatment, versus control"}, "MDA-MB-231 cells": {"test_system": "MDA-MB-231 cells", "experiment": "Membrane fluidity, fluorescence anisotropy of TMA-DPH", "assay_type": "cell-based", "details": "atorvastatin 72 h"}, "SKBR-3 cells [2]": {"test_system": "SKBR-3 cells", "experiment": "Membrane compactness, generalized polarization of Laurdan", "assay_type": "cell-based", "details": "atorvastatin 72 h, 2 μM Laurdan"}, "[3]": {"test_system": "HMG-CoA reductase expression in SKBR-3 cells", "details": "atorvastatin at a micromolar concentration, ref [57]; cited from earlier work"}, "[4]": {"test_system": "HMG-CoA reductase expression in MDA-MD-231 cells", "details": "atorvastatin at a micromolar concentration, ref [57]; cited from earlier work"}},
  "data": [
    {"molecule": "CC(C)c1c(C(=O)Nc2ccccc2)c(-c2ccccc2)c(-c2ccc(F)cc2)n1CC[C@@H](O)C[C@@H](O)CC(=O)O", "note": "[atorvastatin]", "values": [
      {"measurement": "amount of penetratin leaving the endo-lysosomal compartment", "setting": "SKBR-3 cells [1]", "result": "significantly higher"},
      {"measurement": "effect on membrane microviscosity (TMA-DPH anisotropy)", "setting": "MDA-MB-231 cells", "result": "unexpected increase"},
      {"measurement": "effect on membrane compactness (generalized polarization of Laurdan)", "setting": "SKBR-3 cells [2]", "result": "decrease"},
      {"measurement": "induction of HMG-CoA reductase expression", "setting": "[3]", "result": 4, "unit": "fold"},
      {"measurement": "change in HMG-CoA reductase enzyme expression", "setting": "[4]", "result": "no change"}
    ]}
  ]
}
